The test system of one experiment is FSH. The experiment is described as follows: Vaccination of rats with FSH-derived peptides, antisera analyzed in FSH-binding ELISA. The note with it: rat, in vivo. Here is the method: Peptides were synthesized by solid-phase peptide synthesis using a 4-(2′,4′-dimethoxyphenyl-Fmoc-aminomethyl)-phenoxy (RinkAmide) resin (BACHEM, Germany) on a Syro-synthesizer (MultiSynTech, Germany). All amino acids were purchased and used as N-alpha-(Fmoc) protected with side-chain functionalities protected as N-t-Boc (KW), O-t-Bu (DESTY), N-Trt (HNQ), S-Trt (C), or N-Pbf (R) groups. A coupling protocol using a 6.5-fold excess of HBTU/HOBt/amino acid/DIPEA (1:1:1:2) in NMP with a 30 min. activation time using double couplings was employed. […] Subsequently, female Wistar rats were immunized on day 0 with 400 uL of a ˜2.5 mg/mL of the peptide or peptide-T-construct in PBS/CFA 1:1 (v/v) (PBS=Phosphate-Buffered Saline, CFA=Complete Freund's Adjuvance), followed by a booster (same quantity and concentration) at 4 weeks. Subsequently, the anti-peptide titers were determined after 6 weeks to check for immune response and finally the rats were bleeded after 8 weeks and the antisera collected. Antisera were analyzed in an FSH-binding ELISA (Greiner, PS; GDA-coating with 1 μg/mL of FSH (Biotrend)) using 2,2′-azine-di(ethylbenzthiazoline sulfonate) (ABTS) in combination with a peroxidase-labeled Goat-anti-rat serum as second antibody. […]
A general note: ELISA stands for enzyme-linked immunosorbent assay.

Another experiment deals with anti-CCR5 antibody 2D7. The experiment is described as follows: Screening of peptide microarrays with anti-CCR5 antibody 2D7. The format is binding. The note with it: absorbance at 405 nm measured using a CCD-camera; for 2D7 (0.1 μg/ml): mAb 2D7 at 0.1 μg/ml on peptide microarray; for 2D7 (1 μg/ml): mAb 2D7 at 1 μg/ml on peptide microarray; for 2D7 (10 μg/ml): mAb 2D7 at 10 μg/ml on peptide microarray. As for the experimental part: Grafting of the polypropylene support with polyacrylic acid was performed by irradiating the support in a 6% acrylic acid solution containing CUS04 using gamma radiation at a dose of 12 kGy. The grafted solid support containing carboxylic acid groups was subsequently reacted with t-butyloxycarbonyl-hexamethylenediamine (Boc-HMDA) using dicyclohexylcarbodiimide (DCC) with N-hydroxybenzotriazole (HOBt) and subsequent cleavage of the Boc-groups using trifluoroacetic acid (TFA). The peptides were synthesized using standard Fmoc-chemistry and, after acylation, deprotected by reaction with TFA (15 ml/g resin) containing 13.3% (w) phenol, 5% (v) thioanisole, 2.5% (v) 1,2-ethanedithiol, and 5% (v) milliQ-H2O for 2-4 hrs at RT. After washing 3× with H2O, the peptide microarrays were treated with excess of a 1.0 mM solution of either mP2 or T3 in 20 mM amm. bicarbonate (pH 7.8)/acetonitril (1:1 v/v) for 30-60 min. at room temperature, followed by 3× washing with 50% ACN/H2O. Then, the microarrays were washed with excess of millipore H2O and sonicated in disrupt-buffer (1% SDS/0.1% β-mercaptoethanol (BME) in phosphate buffered saline (PBS), pH 7.2) at 70° C. for 30 min. followed by sonication in millipore H2O for another 45 min. Synthese Van Scaffolds: The scaffolds are commercially available by Aldrich. Screening of Micro-Arrays with Antibodies Microarrays were pretreated with PBS for 30 min. followed by precoating with incubation buffer (PBS containing 5% ovalbumin, 5% horse serum and 1% Tween-80) for 1 hour. Then, the microarrays were incubated with mAb (typically 1/1000, diluted in incubation buffer) overnight at 4° C. After washing (3×10 min.) with PBS/Tween-80 (0.05%), the peptides were incubated with peroxidase labeled rabbit anti-mouse antibody for 1 hr at 25° C. (rampo, 1/1000; Dako, Glostrup, Denmark) and subsequently, after washing again (3×10 min.) with PBS/Tween-80 (0.05%), incubated with the peroxidase substrate 2,2′-azino-di-3-ethylbenzthiazoline sulfonate (ABTS; 50 mg in 100 ml 0.1M citric acid-sodium phosphate (McIlvaine) buffer (pH 4.0) containing 20 ul 30% H2O2). After 1 h the absorbance (at 405 nm) was measured using a CCD-camera (XC-77RR, Sony, Japan). Bound mAb was removed by sonication in disrupt-buffer as described above. The micro-arrays were re-used for screening approximately 10-15 times. CCR5 CCR5 is a […] co-receptor that is used by HIV for cellular entry. Antibodies specifically directed against CCR5 would therefore be suitable for counteracting cellular entry by HIV. However, immunization with whole CCR5 is problematic since CCR5 is a transmembrane protein. In order to be capable of eliciting CCR5-specific antibodies, immunogenic compounds based on CCR5 are therefore desired. In order to design suitable test compounds, 4 CCR5 sequences were taken into account: one N-terminus domain (Nt) and three extracellular loop domains extended with about 1-6 adjacent amino acid residues of the transmembrane domains (N-terminally as well as C-terminally). These extracellular loop domains are called e1, e2 and e3. The primary sequences of the considered domains are as follows (starting N-terminally):
In the first series of peptides (first row of the above Table), the C-terminal amino acids K, I, N, V, K, Q, I, and A of the Nt sequence were selected. Subsequently, N-terminal flanking sequences with a length of 21 amino acid residues were selected. […] Subsequently, peptides were produced containing one of these flanking sequences. Likewise, in the second series of peptides (second row of the above Table), the C-terminal amino acids P, C, Q, K, I, N, V and K of the Nt sequence were selected. Subsequently, N-terminal flanking sequences with a length of 18 amino acid residues were selected. […] Subsequently, peptides were produced containing one of these flanking sequences. […]

Entries after “also recorded” stand apart in the source; their conditions may differ. *1 amine or outer side, *2 acyl side, *3 side chain or, on linkers, in order; H or OH if unused. Bridges are numbered along the chain shown (N, C = ends). Where no end group is shown, it is not given here. T4 = 1,2,4,5-tetrabromodurene scaffold; mXylylene = c1cc(C[*:1])cc(C[*:2])c1

As to “*KIQKTATFKELVYETCRVPGAAHHADSLCTYPVATQAHAGK# (SEQ ID NO: 120) T4 (KIQKTATFKELVYETCRVPGAAHHADSLCTYPVATQAHAGK-NH2; linker 16-29 via T4 (inferred)) [No. 9 (Table 4B), FSH-derived CLIPS peptide]”, the “immune response against native FSH in rats (in words)” value in the experiment with FSH is “Good results”.

Consider “*TFKELVYETCRVPGAAHHADSLCTYPVATQAH# (SEQ ID NO: 119) + m-T2 (TFKELVYETCRVPGAAHHADSLCTYPVATQAH-NH2; linker 10-23 via mXylylene (inferred)) [No. 4 (Table 4B), FSH-derived CLIPS peptide]”, for which the “immune response against native FSH in rats (in words)” value in the experiment on FSH (listed as TFKELVYETCRVPGAAHHADSLCTYPVATQAH cyclized onto m-T2) is “production of antibodies that are reactive with native FSH; also recorded: very high antibody titre”.

As for “CAQWDFGNCQKEGLHYTC (SEQ ID NO: 109) (not fully specified; bound to P2 or T3 scaffold) [compound 1158]”, in the experiment with anti-CCR5 antibody 2D7, the “2D7 (0.1 μg/ml)” value amounted to 132, the “2D7 (1 μg/ml)” value was found to be 416 and the “2D7 (10 μg/ml)” value is 2377.

For “CFGNTMGGGRSQKEGLHYTC (SEQ ID NO: 108) (not fully specified; bound to P2 or T3 scaffold) [compound 719]”, in the experiment with anti-CCR5 antibody 2D7, the “2D7 (0.1 μg/ml)” value is given as 113, the “2D7 (1 μg/ml)” value worked out at 678 and the “2D7 (10 μg/ml)” value turned out to be 2819.

With “CNTMGGGRSQKEGLHYTC (SEQ ID NO: 106) (not fully specified; bound to P2 or T3 scaffold) [compound 702]”, in the experiment on anti-CCR5 antibody 2D7, the “2D7 (0.1 μg/ml)” value is given as 68, the “2D7 (1 μg/ml)” value came to 1580 and the “2D7 (10 μg/ml)” value is 2787.

On to “CQKEGLHYC (SEQ ID NO: 102) (not fully specified; bound to P2 or T3 scaffold) [compound 443]”, for which, in the experiment with anti-CCR5 antibody 2D7, the “2D7 (0.1 μg/ml)” value worked out at 148, the “2D7 (1 μg/ml)” value stood at 2636 and the “2D7 (10 μg/ml)” value was 3090.

In the case of “CQKEGLHYTC (SEQ ID NO: 101) (not fully specified; bound to P2 or T3 scaffold) [compound 447]”, in the experiment on anti-CCR5 antibody 2D7, the “2D7 (0.1 μg/ml)” value was found to be 261, the “2D7 (1 μg/ml)” value is on record as 2706 and the “2D7 (10 μg/ml)” value was 2943.

“CQWDFGNTCQKEGLHYTC (SEQ ID NO: 107) (not fully specified; bound to P2 or T3 scaffold) [compound 1159]”: in the experiment with anti-CCR5 antibody 2D7, the “2D7 (0.1 μg/ml)” value was 213, the “2D7 (1 μg/ml)” value is 1153 and the “2D7 (10 μg/ml)” value was 2636.

As for “CRSQKEGLHYTC (SEQ ID NO: 105) [compound 450]”, in the experiment with anti-CCR5 antibody 2D7, the “2D7 (0.1 μg/ml)” value was 107, the “2D7 (1 μg/ml)” value was 2364 and the “2D7 (10 μg/ml)” value worked out at 2852.

On to “CSQKEGLHYTC (SEQ ID NO: 103) (not fully specified; bound to P2 or T3 scaffold) [compound 449]”, for which, in the experiment with anti-CCR5 antibody 2D7, the “2D7 (0.1 μg/ml)” value is 99, the “2D7 (1 μg/ml)” value was determined as 2606 and the “2D7 (10 μg/ml)” value turned out to be 2889.

Regarding “CWDFGNTMCQKEGLHYTC (SEQ ID NO: 104) (not fully specified; bound to P2 or T3 scaffold) [compound 1160]”, in the experiment on anti-CCR5 antibody 2D7, the “2D7 (0.1 μg/ml)” value is 315, the “2D7 (1 μg/ml)” value is given as 2469 and the “2D7 (10 μg/ml)” value is on record as 2765.

These data come from US7863239B2, “Binding compounds, immunogenic compounds and peptidomimetics” (Pepscan Systems B.V., priority 2005, dated 2011).
